Reference: PMC2765246 (Journal of medicinal chemistry, 2008)

Tests used:
[1] = system: Plasmodium falciparum; conditions: P. falciparum growth inhibition, cited from earlier work; for IC50: read-out: IC50 (cell)
[2] = biological target: T1, P. vivax FPPS (farnesyl diphosphate synthase) (Plasmodium vivax, UniProt A5K4U6); assay: P. vivax FPPS inhibition, continuous spectrophotometric phosphate release assay; format: biochemical; conditions: pIC50 (enzyme)
T1 sequence (A5K4U6 1-375): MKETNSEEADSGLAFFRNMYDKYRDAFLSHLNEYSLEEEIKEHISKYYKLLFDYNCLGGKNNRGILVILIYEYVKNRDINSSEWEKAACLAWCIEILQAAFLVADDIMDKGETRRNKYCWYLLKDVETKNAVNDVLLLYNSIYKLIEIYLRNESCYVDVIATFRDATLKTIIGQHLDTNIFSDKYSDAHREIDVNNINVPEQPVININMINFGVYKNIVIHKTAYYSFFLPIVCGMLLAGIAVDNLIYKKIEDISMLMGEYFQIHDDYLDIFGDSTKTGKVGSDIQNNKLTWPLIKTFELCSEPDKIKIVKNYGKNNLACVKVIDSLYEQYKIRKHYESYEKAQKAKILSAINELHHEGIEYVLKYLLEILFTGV

[3] = FPPS from Plasmodium vivax, pIC50 = −log10 IC50

O=P(O)(O)C(O)(CSc1ccncc1)P(=O)(O)O [Compound 22]
pIC50 (cell) [1]: 3.8

CN(Cc1ccccc1)C(P(=O)(O)O)P(=O)(O)O [Compound 24]
IC50 [2, 3]: 794 nM
pIC50 (cell) [1]: 3.7

O=P(O)(O)C(O)(Cc1cccc(F)c1)P(=O)(O)O [Compound 7]
pIC50 (cell) [1]: 5.2

O=P(O)(O)C(Nc1ccc(Cl)cn1)P(=O)(O)O [Compound 8]
pIC50 (cell) [1]: 5.0
IC50 [1]: 11000 nM

Cc1ccc(C)c(COc2ccc(C)nc2NC(P(=O)(O)O)P(=O)(O)O)c1 [Compound 25]
pIC50 (cell) [1]: 3.7

CCCCCCCCCC(O)(P(=O)(O)O)P(=O)(O)O [Compound 4]
IC50 [2, 3]: 794 nM

CCCCCCC(O)(P(=O)(O)O)P(=O)(O)O [Compound 1]
pIC50 (cell) [1]: 5.9

O=P(O)(O)C(O)(Cc1ccccc1)P(=O)(O)O [Compound 9]
pIC50 (cell) [1]: 5.0

O=P(O)(O)C(Nc1nccs1)P(=O)(O)O [Compound 19]
IC50 [2, 3]: 794 nM

O=P(O)(O)C(O)(Cc1cccc(Cl)c1)P(=O)(O)O [Compound 6]
pIC50 (cell) [1]: 5.4

CCCCCCCCCCCCCC(O)(P(=O)(O)O)P(=O)(O)O [Compound 2]
pIC50 (cell) [1]: 5.7

CN(CCCCc1ccccc1)CCC(O)(P(=O)(O)O)P(=O)(O)O [Compound 3]
pIC50 (cell) [1]: 5.5
IC50 [1]: 2900 nM

O=P(O)(O)C(O)(Cc1cccc(Br)c1)P(=O)(O)O [Compound 11]
IC50 [2, 3]: 794 nM

O=P(O)(O)C(O)(Cc1cccc(C(F)(F)F)c1)P(=O)(O)O [Compound 5]
IC50 [2, 3]: 631 nM
pIC50 (cell) [1]: 5.4

O=P(O)(O)C(O)(Cc1ccccn1)P(=O)(O)O [Compound 26]
IC50 [2]: 1000 nM
pIC50 (cell) [1]: 3.7

CN(CCCc1ccccc1)CCC(O)(P(=O)(O)O)P(=O)(O)O [Compound 13]
pIC50 (cell) [1]: 4.6
IC50 [1]: 23000 nM
